Measurements reported in patent publication US20260224714A1, “CYCLING LYSOSOMAL TARGETING ANTIBODY CONJUGATES” (Lycia Therapeutics, Inc., priority 2023, published 2026).

What was measured:
Format in all cases: cell-based
[1] = test system: Alexa Fluor647 labelled human IgE; assay: Uptake assay: internalization of Alexa Fluor 647 labelled IgE in wild type HepG2 cells (Example 6); settings: equimolar conjugate and AF647 IgE, 2 hours, median cellular AF647 intensity by flow cytometry, normalized to unconjugated parent protein
Outline: (§1)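 HepG2 cells (wild type or ASGPR1/2 KO) pre-blocked with Fc receptor blocker, then exposed 2 h to conjugate precomplexed equimolar with AF647-labelled human IgE (30 min, room temperature) at 300 nM to 1.23 nM final. Median cellular AF647 by flow cytometry, normalized to unconjugated parent protein.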

[2] = test system: Alexa Fluor647 labelled human IgE; assay: Uptake assay: internalization of Alexa Fluor 647 labelled IgE in ASGPR1/2 KO HepG2 cells (Example 6); settings: equimolar conjugate and AF647 IgE, normalized to unconjugated parent protein
Outline: as §1

[3] = test system: LysoLight-labelled human IgE; assay: Lysosomal degradation of LysoLight-labelled IgE in HepG2 cells, live cell imaging (Example 7); settings: equimolar conjugate:LysoLight IgE, area under the curve of deep red fluorescence over three days, normalized to unconjugated parent protein
Outline: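 Conjugate precomplexed 30 min at room temperature with equimolar LysoLight-labelled human IgE, added to Fc-receptor-blocked HepG2 cells at final 100–1.23 nM. Red fluorescence, released on lysosomal cathepsin cleavage, imaged hourly for 72 h starting 1 h post-addition; area under the fluorescence–time curve taken as total degradation.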

HepG2 cells = assay: Externalization of conjugates from a cell following internalization (cycling), high-throughput format (Example 11); settings: 50 nM conjugate 1 hour, stringent washes, Alexa Fluor 647-labelled a-human IgG 1 hour, FACS, normalized to unconjugated parent protein, average of two replicate wells
Outline: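 25,000 HepG2 cells incubated with conjugate for 1 h at indicated concentrations, then chilled and washed (DPBS, pH 5.2 acetate, pH 2.5 EBSS) to strip surface conjugate. Recycled conjugate captured by 1 μg/ml AF647 anti-human IgG in 37 °C EMEM for 1 h; median AF647 by flow cytometry, mean of two wells.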

human IgE = assay: Degradation of initial and subsequent dose of target in HepG2 cells (Example 12, Table 30); settings: normalized to unconjugated; for Normalized Fluorescence Post Wash Median Green: after wash, probe-conjugated IgE added for 4 hours, subsequent dose of target; for Normalized Fluorescence Precomplex Median Deep Red: precomplexed equimolar conjugate:IgE (cathepsin-cleavable quenched fluorescent probe) added for 2 hours, initial dose of target
Outline: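 HepG2 cells exposed 2 h to conjugate precomplexed (30 min, 37 °C, equimolar) with 647-quenched-probe human IgE, acid/ice washed, then given 488-probe IgE without conjugate for 4 h. Median 647 (initial) and 488 (recycled) fluorescence by flow cytometry, normalised to unconjugated parent; mean of two wells.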

recombinant IgE = assay: Degradation of super-stoichiometric levels of target in HepG2 cells (Example 13, Table 31); settings: 1 nM conjugate and 25 nM IgE for three days, (A-B)/C IgE depleted relative to conjugate, average of two replicate wells
Outline: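 HepG2 cells in EMEM/10% FBS were incubated with 1 nM conjugate plus 25 nM recombinant IgE for 72 h. IgE in medium at start and end quantified by MSD/ELISA-type assay; value is molar equivalents IgE depleted per conjugate, (initial − day-3 IgE)/conjugate concentration, mean of two wells.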

Structure (SMILES)	Normalized Fluorescence 3.7 nM WT [1]	Normalized Fluorescence 100 nM WT [1]	Normalized Fluorescence 100 nM ASGPR KO [2]	Normalized Fluorescence 3.7 nM [3]	Normalized Fluorescence 100 nM [3]	Normalized Fluorescence (HepG2 cells)	Normalized Fluorescence Post Wash Median Green (human IgE)	Normalized Fluorescence Precomplex Median Deep Red (human IgE)	Average Degradation (Molar equivalents) (recombinant IgE)
CC(=O)N[C@@H]1[C@@H](O)[C@@H](O)[C@@H](CO)O[C@@H]1c1cc(COCCOCCNC(=O)NCCCC(CCCNC(=O)NCCOCCOCc2cc([C@H]3O[C@H](CO)[C@H](O)[C@H](O)[C@H]3NC(C)=O)on2)(CCCNC(=O)NCCOCCOCc2cc([C@H]3O[C@H](CO)[C@H](O)[C@H](O)[C@H]3NC(C)=O)on2)NC(=O)CCOCCOCCOCCNS(=O)(=O)c2ccc(N3C(=O)C=CC3=O)cc2)no1 [Compound 2325]	87.8	270.0	1.2	15.8	3.5	54.2	3.6	3.9	6.9 Molar equivalents
CC(=O)N[C@H]1[C@H](OCCOCCOCCOCCNC(=O)CCOCC(COCCC(=O)NCCOCCOCCOCCO[C@@H]2O[C@H](CO)[C@H](O)[C@H](O)[C@H]2NC(C)=O)(COCCC(=O)NCCOCCOCCOCCO[C@@H]2O[C@H](CO)[C@H](O)[C@H](O)[C@H]2NC(C)=O)NC(=O)CCOCCOCCOCCOCCNC(=O)c2ccc(N3C(=O)C=CC3=O)cc2)O[C@H](CO)[C@H](O)[C@@H]1O [Compound 2402-C]	19.6	84.3	1.3	2.2	2.1	10.5	1.6	2.1	0.7 Molar equivalents
O=C(CCOCCOCCOCCNS(=O)(=O)c1ccc(N2C(=O)C=CC2=O)cc1)NC(CCCNC(=O)NCCOCCOCCOC[C@H]1CN([C@H]2CO[C@H](CO)[C@H](O)[C@@H]2O)C(=O)O1)(CCCNC(=O)NCCOCCOCCOC[C@H]1CN([C@H]2CO[C@H](CO)[C@H](O)[C@@H]2O)C(=O)O1)CCCNC(=O)NCCOCCOCCOC[C@H]1CN([C@H]2CO[C@H](CO)[C@H](O)[C@@H]2O)C(=O)O1 [Compound 2324]	39.2	207.4	1.2	5.8	2.6	32.2	2.9	3.2	5.2 Molar equivalents
O=C(CCOCCOCCOCCNS(=O)(=O)c1ccc(N2C(=O)C=CC2=O)cc1)NC(CCCNC(=O)NCCOCCOCCOCc1csc(N[C@H]2CO[C@H](CO)[C@H](O)[C@@H]2O)n1)(CCCNC(=O)NCCOCCOCCOCc1csc(N[C@H]2CO[C@H](CO)[C@H](O)[C@@H]2O)n1)CCCNC(=O)NCCOCCOCCOCc1csc(N[C@H]2CO[C@H](CO)[C@H](O)[C@@H]2O)n1 [Compound 2310]	30.3	127.9	1.1	4.3	2.4	16.6	2.0	2.3	4.0 Molar equivalents
O=C(CCOCCOCCOCCNS(=O)(=O)c1ccc(N2C(=O)C=CC2=O)cc1)NC(CCCNC(=O)NCCOCCOCCOC[C@@H]1CN([C@H]2CO[C@H](CO)[C@H](O)[C@@H]2O)C(=O)O1)(CCCNC(=O)NCCOCCOCCOC[C@@H]1CN([C@H]2CO[C@H](CO)[C@H](O)[C@@H]2O)C(=O)O1)CCCNC(=O)NCCOCCOCCOC[C@@H]1CN([C@H]2CO[C@H](CO)[C@H](O)[C@@H]2O)C(=O)O1 [Compound 2306]	31.0	164.6	1.1	5.6	1.8	23.1	2.4	2.5	1.8 Molar equivalents
CC(=O)N[C@@H]1[C@@H](O)[C@@H](O)[C@@H](CO)O[C@@H]1CCCOCCOCCNC(=O)NCCCC(CCCNC(=O)NCCOCCOCCC[C@H]1O[C@H](CO)[C@H](O)[C@H](O)[C@H]1NC(C)=O)(CCCNC(=O)NCCOCCOCCC[C@H]1O[C@H](CO)[C@H](O)[C@H](O)[C@H]1NC(C)=O)NC(=O)NCCOCCOCCOCCN(C)C(=O)c1ccc(N2C(=O)C=CC2=O)cc1 [Compound 2322]	68.5	214.4	1.2	7.8	3.5	46.8	3.3	3.5	5.2 Molar equivalents
CC(=O)N[C@@H]1[C@@H](O)[C@@H](O)[C@@H](CO)O[C@@H]1CCCOCCOCCNC(=O)NCCCC(CCCNC(=O)NCCOCCOCCC[C@H]1O[C@H](CO)[C@H](O)[C@H](O)[C@H]1NC(C)=O)(CCCNC(=O)NCCOCCOCCC[C@H]1O[C@H](CO)[C@H](O)[C@H](O)[C@H]1NC(C)=O)NC(=O)NCCOCCOCCOCCNC(=O)c1ccc(N2C(=O)C=CC2=O)cc1 [Compound 2314]	69.0	265.7	1.0	13.9	3.9	40.5	3.5	3.6	6.5 Molar equivalents
CC(=O)N[C@@H]1[C@@H](O)[C@@H](O)[C@@H](CO)O[C@@H]1CCCOCCOCCNC(=O)NCCCC(CCCNC(=O)NCCOCCOCCC[C@H]1O[C@H](CO)[C@H](O)[C@H](O)[C@H]1NC(C)=O)(CCCNC(=O)NCCOCCOCCC[C@H]1O[C@H](CO)[C@H](O)[C@H](O)[C@H]1NC(C)=O)NC(=O)COCCOCCOCCOCCN(C(=O)CBr)C1CCOCC1 [Compound 2307, N-[4-[2-[2-[3-[(2R,3R,4R,5R,6R)-3-acetamido-4,5-dihydroxy-6-(hydroxymethyl)tetrahydropyran-2-yl]propoxy]ethoxy]ethylcarbamoylamino]-1,1-bis[3-[2-[2-[3-[(2R,3R,4R,5R,6R)-3-acetamido-4,5-dihydroxy-6-(hydroxymethyl)tetrahydropyran-2-yl]propoxy]ethoxy]ethylcarbamoylamino]propyl]butyl]-2-[2-[2-[2-[2-[(2-bromoacetyl)-tetrahydropyran-4-yl-amino]ethoxy]ethoxy]ethoxy]ethoxy]acetamide]	81.6	253.2	1.2	7.9	4.1	42.9	3.5	3.7	5.6 Molar equivalents
CC(=O)N[C@@H]1[C@@H](O)[C@@H](O)[C@@H](CO)O[C@@H]1CCCOCCOCCNC(=O)NCCCC(CCCNC(=O)NCCOCCOCCC[C@H]1O[C@H](CO)[C@H](O)[C@H](O)[C@H]1NC(C)=O)(CCCNC(=O)NCCOCCOCCC[C@H]1O[C@H](CO)[C@H](O)[C@H](O)[C@H]1NC(C)=O)NC(=O)NCOCCOCCOCCNS(=O)(=O)c1ccc(N2C(=O)C=CC2=O)cc1 [Compound 2313]	89.1	259.1	1.0	13.0	4.1	36.4	3.2	3.5	7.5 Molar equivalents
